Publication PMC6028563, “Probing Substituents in the 1- and 3-Position: Tetrahydropyrazino-Annelated Water-Soluble Xanthine Derivatives as Multi-Target Drugs With Potent Adenosine Receptor Antagonistic Activity” (Frontiers in Chemistry, 2018)
Read-outs that look alike come from different tables or passages of the source.

What was measured:
recombinant human MAO-A [1] = biological target: T1, recombinant human MAO-A (Homo sapiens, UniProt P21397); assay: Monoamine oxidase assay (Amplex Red), MAO-A; type: biochemical; conditions: for inhibition at 10 µM: at 10,000 nM, read-out: % inhibition at indicated concentration, Human MAO-A; for IC50: n = 3, read-out: IC50 ± SEM, Human MAO-A
T1 construct: purchased Sigma-Aldrich M7316; host or cells: baculovirus-infected insect cells
T1 sequence (P21397 1-527): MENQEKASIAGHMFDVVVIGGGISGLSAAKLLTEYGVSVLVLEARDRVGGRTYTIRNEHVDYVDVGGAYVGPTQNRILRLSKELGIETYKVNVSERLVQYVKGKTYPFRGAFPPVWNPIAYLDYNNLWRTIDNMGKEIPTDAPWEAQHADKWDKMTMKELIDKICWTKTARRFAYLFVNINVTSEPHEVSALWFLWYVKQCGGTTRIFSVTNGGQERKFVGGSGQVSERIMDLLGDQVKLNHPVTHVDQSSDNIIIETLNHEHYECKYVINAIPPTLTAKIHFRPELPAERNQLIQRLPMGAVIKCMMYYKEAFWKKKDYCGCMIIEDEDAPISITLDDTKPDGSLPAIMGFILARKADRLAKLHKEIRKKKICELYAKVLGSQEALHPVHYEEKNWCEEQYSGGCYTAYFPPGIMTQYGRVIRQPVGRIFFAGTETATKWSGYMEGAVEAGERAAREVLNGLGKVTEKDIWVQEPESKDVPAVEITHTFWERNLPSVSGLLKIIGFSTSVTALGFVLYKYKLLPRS
Method in brief: (§1)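 Recombinant human MAO-A and MAO-B, expressed in baculovirus-infected insect cells, were assayed by Amplex Red fluorometric detection. Rat MAO-B inhibition used mitochondria-enriched fractions from male Sprague Dawley rat liver.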

recombinant human MAO-B [2] = biological target: T2, recombinant human MAO-B (Homo sapiens, UniProt P27338); assay: Monoamine oxidase assay (Amplex Red), MAO-B; type: biochemical; conditions: for inhibition at 10 µM: at 10,000 nM (10 μM), read-out: % inhibition at indicated concentration, Human MAO-B; for IC50: n = 3, read-out: IC50 ± SEM, Human MAO-B
T2 construct: purchased Sigma-Aldrich M7441; host or cells: baculovirus-infected insect cells
T2 sequence (P27338 1-520): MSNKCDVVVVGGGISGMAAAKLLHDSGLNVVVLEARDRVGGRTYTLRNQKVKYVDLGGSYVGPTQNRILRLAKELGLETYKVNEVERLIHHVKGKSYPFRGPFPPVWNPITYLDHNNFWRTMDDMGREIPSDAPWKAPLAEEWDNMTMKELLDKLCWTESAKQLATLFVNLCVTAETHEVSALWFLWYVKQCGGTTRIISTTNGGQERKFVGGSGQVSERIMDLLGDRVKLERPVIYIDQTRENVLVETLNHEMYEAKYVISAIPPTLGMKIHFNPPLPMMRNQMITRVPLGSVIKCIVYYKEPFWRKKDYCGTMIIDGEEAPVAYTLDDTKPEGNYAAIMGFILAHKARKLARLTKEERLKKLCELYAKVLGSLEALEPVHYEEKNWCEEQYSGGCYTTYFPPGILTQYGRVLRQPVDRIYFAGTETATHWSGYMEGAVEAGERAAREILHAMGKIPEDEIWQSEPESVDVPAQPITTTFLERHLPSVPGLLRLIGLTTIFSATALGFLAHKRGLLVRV
Method in brief: as §1

recombinant human MAO-A [3] = biological target: T1, recombinant human MAO-A; conditions: human (h); Figure 1; ref Petzer et al., 2009; Müller and Jacobson, 2011; Brunschweiger et al., 2014; cited from earlier work
recombinant human MAO-B [4] = biological target: T2, recombinant human MAO-B; conditions: human (h); Figure 1; ref Petzer et al., 2009; Müller and Jacobson, 2011; Brunschweiger et al., 2014; cited from earlier work
passive avoidance test = system: passive avoidance test; set-up: method as in Mihara et al., 2007; conditions: rats; ref Mihara et al., 2007; cited from earlier work
rat A1 AR = biological target: T3, rat A1 AR (Rattus norvegicus, UniProt P25099); assay: Radioligand binding assay at rat A1 AR (rat brain cortex) vs. [^3H]CCPA; conditions: rat (r)
T3 construct: A1 ARs of rat brain cortical membrane; from tissue; host or cells: rat brain cortex membranes
T3 sequence (P25099 1-326): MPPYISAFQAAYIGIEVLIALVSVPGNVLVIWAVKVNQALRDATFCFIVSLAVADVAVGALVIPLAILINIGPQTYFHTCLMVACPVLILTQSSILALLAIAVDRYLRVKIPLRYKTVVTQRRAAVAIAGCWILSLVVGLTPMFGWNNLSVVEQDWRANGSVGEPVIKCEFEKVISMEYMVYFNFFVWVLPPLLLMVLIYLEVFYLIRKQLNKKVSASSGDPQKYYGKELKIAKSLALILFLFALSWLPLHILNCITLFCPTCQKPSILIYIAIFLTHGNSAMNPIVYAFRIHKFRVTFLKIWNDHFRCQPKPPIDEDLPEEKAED
Method in brief: (§2)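 Rat A1 affinity was measured on cortical membranes and rat A2A on striatal membranes from rat brain. Human A1, A2A, A2B and A3 subtypes were tested on membranes of CHO cells recombinantly expressing each receptor. No functional assays were run, as these xanthine-type compounds act only as blockers.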

rat A2A AR = biological target: T4, rat A2A AR (Rattus norvegicus, UniProt P30543); assay: Radioligand binding assay at rat A2A AR (rat brain striatum) vs. [^3H]MSX-2; conditions: rat (r)
T4 construct: A2A ARs of rat brain striatal membrane preparations; from tissue; host or cells: rat brain striatum membranes
T4 sequence (P30543 whole entry): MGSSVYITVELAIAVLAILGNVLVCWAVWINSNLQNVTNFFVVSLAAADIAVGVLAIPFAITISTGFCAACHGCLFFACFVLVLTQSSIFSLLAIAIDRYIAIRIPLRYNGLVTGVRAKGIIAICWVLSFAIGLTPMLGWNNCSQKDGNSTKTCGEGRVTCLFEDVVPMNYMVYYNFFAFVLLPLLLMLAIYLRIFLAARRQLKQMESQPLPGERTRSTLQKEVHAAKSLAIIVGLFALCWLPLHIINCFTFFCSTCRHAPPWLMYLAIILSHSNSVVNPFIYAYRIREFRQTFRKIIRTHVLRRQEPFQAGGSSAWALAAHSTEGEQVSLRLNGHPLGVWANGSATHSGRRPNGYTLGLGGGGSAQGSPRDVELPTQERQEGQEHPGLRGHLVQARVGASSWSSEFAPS
Method in brief: as §2

human A2B AR = biological target: T5, human A2B AR (Homo sapiens, UniProt P29275); assay: Radioligand binding assay at human A2B AR vs. [^3H]PSB-603
T5 construct: expressed in transfected cells; host or cells: CHO cells
T5 sequence (P29275 1-332): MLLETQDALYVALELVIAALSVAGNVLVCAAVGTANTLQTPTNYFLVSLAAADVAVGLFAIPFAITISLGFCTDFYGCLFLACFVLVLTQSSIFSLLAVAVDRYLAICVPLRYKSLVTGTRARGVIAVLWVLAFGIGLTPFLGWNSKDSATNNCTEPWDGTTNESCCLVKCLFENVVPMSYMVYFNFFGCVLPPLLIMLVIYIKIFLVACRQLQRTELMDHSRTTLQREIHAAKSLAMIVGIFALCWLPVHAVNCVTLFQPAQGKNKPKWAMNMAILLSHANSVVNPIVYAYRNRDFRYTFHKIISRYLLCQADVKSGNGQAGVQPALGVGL
Method in brief: as §2

human A3 AR [5] = biological target: T6, human A3 AR (Homo sapiens, UniProt P0DMS8); assay: Radioligand binding assay at human A3 AR vs. [^3H]PSB-11
T6 construct: expressed in transfected cells; host or cells: CHO cells
T6 sequence (P0DMS8 1-318): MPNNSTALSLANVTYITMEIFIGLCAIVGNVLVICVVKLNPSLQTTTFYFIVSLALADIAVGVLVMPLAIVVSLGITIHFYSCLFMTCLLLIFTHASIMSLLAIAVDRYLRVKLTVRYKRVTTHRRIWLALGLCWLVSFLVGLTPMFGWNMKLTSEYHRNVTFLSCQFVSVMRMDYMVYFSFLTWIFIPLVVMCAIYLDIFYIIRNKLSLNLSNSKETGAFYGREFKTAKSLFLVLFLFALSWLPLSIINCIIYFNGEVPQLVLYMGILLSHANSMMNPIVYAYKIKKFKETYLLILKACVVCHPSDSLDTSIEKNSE
Method in brief: as §2

ARs = assay: Radioligand binding assays at adenosine receptors (statements on ARs in general)
Description: Membrane preparations and radioligand binding assays at rat A1 (rat brain cortex) and rat A2A ARs (rat brain striatum) were performed as previously described (Ozola et al., [2003]; Alnouri et al., [2015]). For assays at human A1, A2A, A2B, and A3 ARs, CHO cell membranes expressing one of the human AR subtypes were used as previously reported (Klotz et al., [1998]; Alnouri et al., [2015]; De Filippo et al., [2016]).
The synthesized tetrahydropyrazino[2,1-f ]purinediones 13–20 were evaluated in radioligand binding assays for their affinity to A1 ARs of rat brain cortical membrane and to A2A ARs of rat brain striatal membrane preparations. Selected compounds were further investigated for their affinity to human A1 and A2A ARs recombinantly expressed in Chinese hamster ovary (CHO) cells. All compounds were additionally investigated for their affinity to human A2B and A3 ARs recombinantly expressed in CHO cells to determine their AR subtype selectivity. […] It is well known that all xanthine derivatives lacking a ribose moiety, including tricyclic compounds, can only block ARs, but never act as AR agonists; therefore, additional functional studies were not required. […] Potent MAO-B inhibitors were additionally investigated for inhibition of human MAO-A to assess their selectivity. Results are presented in Tables 1–6, and data of standard ligands are included for comparison.

human A3 AR [6] = biological target: T6, human A3 AR; conditions: human (h); Figure 2; ref Chen et al., 2002; Stössel et al., 2013; Mihara et al., 2007; read-out: A3 (Ki); cited from earlier work
[7] = system: haloperidol-induced catalepsy; set-up: method as in Mihara et al., 2007; conditions: monkeys; ref Mihara et al., 2007; cited from earlier work

Row | inhibition at 10 µM (recombinant human MAO-A [1]) | IC50 (recombinant human MAO-A [1]) | inhibition at 10 µM (recombinant human MAO-B [2]) | IC50 (recombinant human MAO-B [2]) | Ki (rat A1 AR; rat brain cortex, n = 3) | inhibition at 1.5 µM (rat A1 AR; read-out: % inhibition of radioligand binding at indicated concentration, A1 vs. [^3H]CCPA, at 1,500 nM) | % inhibition of radioligand binding at indicated concentration, A2A vs. [^3H]MSX-2 (rat A2A AR; at 1,000 nM) | Ki (rat A2A AR; rat brain striatum, n = 3, read-out: Ki ± SEM, A2A vs. [^3H]MSX-2) | Ki (human A2B AR; CHO cell membranes, n = 2 (n = 3 where marked a), read-out: Ki ± SEM, A2B vs. [^3H]PSB-603) | inhibition at 1 µM (human A2B AR; at 1,000 nM, read-out: % inhibition of radioligand binding at indicated concentration, A2B vs. [^3H]PSB-603) | Ki (human A3 AR [5]; CHO cell membranes, n = 2 (n = 3 where marked a), read-out: Ki ± SEM, A3 vs. [^3H]PSB-11) | inhibition at 10 µM (human A3 AR [5]; at 10,000 nM, read-out: % inhibition of radioligand binding at indicated concentration, A3 vs. [^3H]PSB-11) | affinity for ARs (in words) (ARs) | SMILES | IC50 (recombinant human MAO-A [3]) | IC50 (recombinant human MAO-B [4]) | result in the passive avoidance test (passive avoidance test) | Ki (human A3 AR [6]) | effect on haloperidol-induced catalepsy [7]
1 | 18% | > 10 µM | 20% | > 10 µM | – | – | – | – | – | – | – | – | – | CCn1c(=O)c2c(nc(/C=C/c3ccc(OC)c(OC)c3)n2C)n(CC)c1=O [Istradefylline, istradefylline, reference compound] | > 10 µM | > 10 µM | inactive | – | –
2 | 8% | > 10 µM | 56% | < 10 µM | > 1.5 µM | 31% | 39% | > 1 µM | > 1 µM | 2% | > 10 µM | 32% | nearly inactive | CCn1c(=O)c2c(nc3n2CCN(Cc2cc(C(F)(F)F)cc(C(F)(F)F)c2)C3)n(C)c1=O [Compound 14q, 8-(3,5-bis(trifluoromethyl)benzyl)-3-ethyl-1-methyl-6,7,8,9-tetrahydropyrazino[2,1-f]purine-2,4(1H,3H)-dione] | – | – | – | – | –
3 | – | – | – | – | – | – | – | – | – | – | – | – | – | CC(C)n1cc(-c2ncc(N)nc2-c2ccc(F)cc2)ccc1=O [ASP-5854, 5-[5-amino-3-(4-fluorophenyl)pyrazin-2-yl]-1-isopropylpyridine-2(1H)-one] | – | – | positive results | > 0.557 µM | reversed
